Assay type in all cases: organism-based
In series [1] the test system is Phaseolus vulgaris. Nature of the series: Phytotoxicity against Phaseolus vulgaris (White dry bean) assessed as visual crop injury applied pre-emergence relative to control. Conditions: in vivo.
In series [2] the test system is Phaseolus vulgaris. Briefly: Phytotoxicity against Phaseolus vulgaris (Otebo dry bean) assessed as reduction in shoot dry weight applied pre-emergence relative to control. Also noted: scale not given: the % may be the effect or the level left. The settings on record: in vivo.
The test system of series [3] is Phaseolus vulgaris. Nature of the series: Phytotoxicity against Phaseolus vulgaris (Black dry bean) assessed as reduction in plant height applied pre-emergence relative to control. Also on record: scale not given: the % may be the effect or the level left. The settings on record: in vivo.
Series [4] concerns Phaseolus vulgaris. Briefly: Phytotoxicity against Phaseolus vulgaris (Yellow eye dry bean) assessed as reduction in plant height applied pre-emergence relative to control. Also noted: scale not given: the % may be the effect or the level left. The settings on record: in vivo.
The test system of series [5] is Phaseolus vulgaris. Nature of the series: Phytotoxicity against Phaseolus vulgaris (Pinto dry bean) assessed as reduction in shoot dry weight applied pre-emergence relative to control. Also noted: scale not given: the % may be the effect or the level left. Conditions: in vivo.
Series [6] has as its system Phaseolus vulgaris. Nature of the series: Phytotoxicity against Phaseolus vulgaris (Otebo dry bean) assessed as reduction in plant height applied pre-emergence relative to control. Also on record: scale not given: the % may be the effect or the level left. The settings on record: in vivo.
Series [7] has as its system Phaseolus vulgaris. Briefly: Phytotoxicity against Phaseolus vulgaris (White dry bean) assessed as reduction in shoot dry weight applied pre-emergence relative to control. The settings on record: in vivo. Also on record: scale not given: the % may be the effect or the level left.
Series [8] relates to Phaseolus vulgaris. Briefly: Phytotoxicity against Phaseolus vulgaris (Black dry bean) assessed as reduction in shoot dry weight applied pre-emergence relative to control. Also noted: scale not given: the % may be the effect or the level left. Conditions: in vivo.
Series [9] relates to Phaseolus vulgaris. Nature of the series: Phytotoxicity against Phaseolus vulgaris (Yellow eye dry bean) assessed as reduction in shoot dry weight applied pre-emergence relative to control. Also on record: scale not given: the % may be the effect or the level left. The settings on record: in vivo.
The test system of series [10] is Phaseolus vulgaris. Nature of the series: Phytotoxicity against Phaseolus vulgaris (White dry bean) assessed as reduction in plant height applied pre-emergence relative to control. Also on record: scale not given: the % may be the effect or the level left. Conditions: in vivo.
Series [11] relates to Phaseolus vulgaris. Nature of the series: Phytotoxicity against Phaseolus vulgaris (Pinto dry bean) assessed as reduction in plant height applied pre-emergence relative to control. Also on record: scale not given: the % may be the effect or the level left. The settings on record: in vivo.
Series [12] concerns Phaseolus vulgaris. Briefly: Phytotoxicity against Phaseolus vulgaris (Cranberry dry bean) assessed as visual crop injury applied pre-emergence relative to control. Conditions: in vivo.
Series [13] relates to Phaseolus vulgaris. Nature of the series: Phytotoxicity against Phaseolus vulgaris (Kidney) dry bean assessed as visual crop injury relative to control. Conditions: in vivo.
The test system of series [14] is Phaseolus vulgaris. Nature of the series: Phytotoxicity against Phaseolus vulgaris (White dry bean) assessed as visual crop injury relative to control. The settings on record: in vivo.
In series [15] the test system is Phaseolus vulgaris. Briefly: Phytotoxicity against Phaseolus vulgaris (White dry bean) assessed as visual crop injury applied post-emergence relative to control. The settings on record: in vivo, other.
Series [16] deals with Phaseolus vulgaris. Nature of the series: Phytotoxicity against Phaseolus vulgaris (Kidney dry bean) assessed as visual crop injury applied […] relative to control. Conditions: in vivo.
The test system of series [17] is Phaseolus vulgaris. Briefly: Phytotoxicity against Phaseolus vulgaris (Pink dry bean) assessed as visual crop injury applied post-emergence relative to control. Conditions: in vivo.

Consider `CON(C)C(=O)Nc1ccc(Cl)c(Cl)c1` [LINURON], for which the Activity with Phaseolus vulgaris [1] stood at 49%; with Phaseolus vulgaris [2], 26%; with Phaseolus vulgaris [3] it was 24%; in the series with Phaseolus vulgaris [4], 24%; in the series on Phaseolus vulgaris [5], 26%; with Phaseolus vulgaris [6] it was 24%. Further, the Activity in the series with Phaseolus vulgaris [7] came to 26%; in the series on Phaseolus vulgaris [8], 26%; in the series with Phaseolus vulgaris [9], 26%; in the series with Phaseolus vulgaris [10] it was 24%; in the series with Phaseolus vulgaris [11], 24%; in the series with Phaseolus vulgaris [12] it was 4%.
As to `CCc1cccc(CC)c1N(COC)C(=O)CCl` [ALACHLOR], the Activity with Phaseolus vulgaris [13] stood at 0.5%; in the series on Phaseolus vulgaris [14], 5.6%.
As for `CCc1cnc(C2=NC(C)(C(C)C)C(=O)N2)c(C(=O)O)c1` (stereo not given) [IMAZETHAPYR], the Activity with Phaseolus vulgaris [15] was 11%; in the series with Phaseolus vulgaris [3], 40%; with Phaseolus vulgaris [16] it was 1.8%; with Phaseolus vulgaris [10] it was 40%.
On to `CS(=O)(=O)NC(=O)c1cc(Oc2ccc(C(F)(F)F)cc2Cl)ccc1[N+](=O)[O-]` [FOMESAFEN], for which the Activity was found to be 1.4% with Phaseolus vulgaris [16] and 5% with Phaseolus vulgaris [17].
In the case of `C#CCN1C(=O)COc2cc(F)c(N3C(=O)C4=C(CCCC4)C3=O)cc21` [FLUMIOXAZIN], the Activity in the series with Phaseolus vulgaris [1] was found to be 17%; in the series with Phaseolus vulgaris [3], 23%; with Phaseolus vulgaris [10], 28%; in the series with Phaseolus vulgaris [12] it was 4%.
In the case of `CCc1cccc(C)c1N(C(=O)CCl)[C@@H](C)COC` [S-METOLACHLOR], in the series with Phaseolus vulgaris [8], the Activity worked out at 16%.
